According to patent US20090311344A1, “Dosing Regimen” (priority 2008, published 2009):
Entries after “also recorded” stand apart in the source; their conditions may differ.

Experiments:
[1] = test system: HT-29 human colon carcinoma xenografts; assay: HT-29 human colon carcinoma xenografts in athymic nude mice: tumor growth delay; format: in vivo
From the text: Administration of the TPO Mimetic Peptide Compound One Hour After Administration of Carboplatin. Effect on activity and toxicity of carboplatin against HT-29 human colon carcinoma xenografts established in athymic nude mice.
Five groups (n=10) of female athymic nude mice (Harlan) bearing established (˜100 mm^3) HT-29 human colon carcinomas on Day 1. Groups 6-9 (n=20) were included for blood sampling and received the same treatment as Groups 1-4, respectively. Treatment effects on the growth of tumors were evaluated by tumor growth delay (TGD), which is the difference between median time to endpoint (TTE) tumor size in a treatment group compared to a control group. The effect of these treatments on platelet and erythrocyte precursors was determined from CBC analysis and reticulocyte counts of blood samples taken on Days 10, 13, 21 and 24.
Xenografts were initiated from HT-29 human colon carcinoma xenografts maintained in athymic nude mice. HT-29 tumor fragments (1 mm^3) were implanted subcutaneously into the right flank of each test mouse, and tumor growth was monitored. On Day 1 of the study, the animals were pair-matched into five groups (Groups 1-5) for evaluation of efficacy and four groups for sampling (Groups 6-9). Groups 1-5 each consisted of ten animals with tumor sizes ranging from 75-126 mm^3 and group mean tumor sizes of 99 mm^3. Groups 6-9 each consisted of twenty animals with tumor sizes ranging from 40-221 mm^3 and group mean tumor sizes of 84 mm^3. Tumor weight was estimated with the assumption that 1 mg is equivalent to 1 mm^3 of tumor volume. Volume was calculated using the formula:
Group 1 mice (n=10) were untreated tumor growth controls. Group 2 mice (n=10) received 60 mg/kg carboplatin administered intraperitoneally (i.p.) on Days 1, 2, 12, and 13. Group 3 mice (n=10) received 0.2 mg/kg of the TPO mimetic peptide compound administered intravenously (i.v.) via tail vein on Days 2 and 13. Groups 4 and 5 received the combination of carboplatin (60 mg/kg i.p. on Days 1, 2, 12, and 13) and 0.2 mg/kg of the TPO mimetic peptide compound on Days 2, 13 and Days 2, 13, 23, respectively, administered intravenously (i.v.) one hour after carboplatin dosing. Groups 6-9 (n=20 each) were included for blood sampling and received the same treatments as Groups 1-4, respectively. For all groups, each dose of drug was given in a volume of 0.2 mL per 20 g of body weight (10 mL/kg), and was scaled to the body weight of each animal.
Tumors were measured twice each week using calipers. Each animal was euthanized when its tumor reached the predetermined endpoint size of 1000 mm^3, or on the final day of the study (Day 62), whichever came first. The time to endpoint (TTE) for each mouse was calculated from the following equation: […]
where b is the intercept and m is the slope of the line obtained by linear regression of a log-transformed tumor growth data set. The data set was comprised of the first observation that exceeded the study endpoint volume and the three consecutive observations that immediately preceded the attainment of the endpoint volume.
Treatment outcome was determined from tumor growth delay (TGD), which is defined as the increase in the median time to endpoint (TTE) in a treatment group compared to the control group:
where: • T=median TTE for a treatment group, • C=median TTE for the control group (Group 1)
Treatment may cause partial regression (PR) or complete regression (CR) of the tumor in an animal. In a PR response, the tumor volume is 50% or less of its Day 1 volume for three consecutive measurements during the course of the study, and equal to or greater than 13.5 mm^3 for one or more of these three measurements. In a CR response, the tumor volume is less than 13.5 mm^3 for three consecutive measurements during the course of the study. An animal with a CR response at the termination of a study is additionally classified as a long-term tumor-free survivor (LTTFS). […]

[2] = Single dose study in healthy subjects: safety, tolerability, antibodies; format: in vivo, human
Procedure: (§1) See, e.g., U.S. patent application Ser. No. 11/354,065, filed Feb. 14, 2006, the entire contents of which are incorporated herein by reference.
Single i.v. doses of the TPO mimetic peptide compound up to and including 3 μg/kg were well-tolerated in healthy male subjects, with no apparent drug-related effects on adverse events, or cardiovascular or laboratory safety parameters (excluding platelet counts). Antibodies against the TPO mimetic peptide compound were not apparent in any post dose samples.

platelet count = assay: Single dose study in healthy subjects: platelets, megakaryocyte ploidy, progenitor cells; format: in vivo, human
From the text: as §1

[3] = Single dose study in healthy subjects: pharmacokinetics; format: in vivo, human
Procedure: The median tmax of the TPO mimetic peptide compound ranged between 0.09 to 2 hours following single i.v. administration. […] However, the elimination phase appeared consistent across the dose range.

[4] = mouse, in vivo
From the text: (§2) Animals were weighed daily for the first five days of the study and then twice weekly.
(§3) Animals were monitored for adverse treatment-related effects by frequent observation and body-weight (BW) measurements (data not shown).

hemoglobin = assay: Multiple dose study in cancer subjects receiving platinum-based chemotherapy: hemoglobin; format: in vivo, human
[5] = toxicity / side effects in HT-29 tumor-bearing mice
From the text: as §2, §3

[6] = addition of up to 3 cycles to carboplatin therapy

Methoxypolyethyleneglycol20000-propionyl-L-Isoleucyl-L-Glutamyl-Glycyl-L-Prolyl-L-Threonyl-L-Leucyl-L-Arginyl-L-Glutaminyl-L-2-Naphthylalanyl-L-Leucyl-L-Alanyl-L-Alanyl-L-Arginyl-Sarcosyl-Ne-(methoxypolyethyleneglycol20000-propionyl-L-Isoleucyl-L-Glutamyl-Glycyl-L-Prolyl-L-Threonyl-L-Leucyl-L-Arginyl-L-Glutaminyl-L-2-Naphthylalanyl-L-Leucyl-L-Alanyl-L-Alanyl-L-Arginyl-Sarcosyl-)-Lysinamide [TPO mimetic peptide compound]
TGD (tumor growth delay) ([1]; Groups 2-4, relative to untreated Group 1, carboplatin 60 mg/kg i.p. Days 1, 2, 12, 13, TPO mimetic peptide compound 0.2 mg/kg i.v. Days 2, 13): 8.1 days
% Tumor Growth Delay ([1]; HT-29 xenografts, athymic nude mice, n=10, carboplatin 60 mg/kg i.p. Days 1, 2, 12, 13, TPO mimetic peptide compound 0.2 mg/kg i.v. Days 2, 13, Groups 2-4, vs untreated Group 1): 33%
Median TTE ([1]; HT-29 xenografts, athymic nude mice, n=10, carboplatin 60 mg/kg i.p. Days 1, 2, 12, 13, TPO mimetic peptide compound 0.2 mg/kg i.v. Days 2, 13, Groups 2-4, endpoint 1000 mm^3): 32.9 days
effect on tumor growth ([1]; TPO mimetic peptide compound administration alone): did not enhance tumor growth
impact on tumor growth delay [1, 6]: no negative impact on tumor growth delay
survival compared with carboplatin treatment alone [1, 6]: small increase in survival; also recorded: small advantage in survival
safety and tolerability ([2]; healthy male subjects, single i.v. doses 0.375 to 3 μg/kg): safe and generally well tolerated
antibodies against the TPO mimetic peptide compound ([2]; healthy subjects, post dose samples): not apparent; also recorded: no evidence of antibody formation
mean platelet count (platelet count; healthy male subjects, single i.v. administration): dose-dependently increased; also recorded: dose dependent, nonlinear increase
elevated platelet counts, increase from baseline (platelet count; healthy subjects, 3.0 μg/kg dose): ≥ 3 fold
mean number of CD62P+ platelets (platelet count; healthy subjects, 2 highest doses): appeared to increase
mean megakaryocyte ploidy (platelet count; healthy subjects, doses of 1.5 μg/kg and above): increased compared with placebo
mean numbers of hematopoietic progenitor cells (BFU-E and peripheral CD34+ cells) (platelet count; healthy subjects, highest dose): increased compared with placebo; also recorded: increased mean numbers of hematopoietic progenitor cells
Cmax dose proportionality [3]: increased approximately dose proportionally
mean terminal half-life ([3]; 3 μg/kg, not well defined): approximately 36 hours
AUC dose proportionality ([3]; 1.5- to 3-μg/kg dose range): no apparent dose proportionality
treatment-related (TR) deaths [4]: no treatment-related (TR) deaths
hemoglobin as compared with placebo (hemoglobin; 2.25 and 3 μg/kg doses): trends for preservation of hemoglobin
Change From Baseline in Hemoglobin, Diff of LS Mean (SE) vs Placebo (hemoglobin; Day 42, 1.5 μg/kg): 0.54 (0.63)
Change From Baseline in Hemoglobin, Diff of LS Mean (SE) vs Placebo (hemoglobin; Day 42, 3.0 μg/kg): 1.00 (0.61)
Change From Baseline in Hemoglobin, LS Mean (SE) (hemoglobin; Day 42, 3.0 μg/kg): −1.16 (0.47)
Change From Baseline in Hemoglobin, Diff of LS Mean (SE) vs Placebo (hemoglobin; Day 63, 1.5 μg/kg): −0.75 (0.90)
Change From Baseline in Hemoglobin, LS Mean (SE) (hemoglobin; Day 63, 1.5 μg/kg): −2.98 (0.70)
Change From Baseline in Hemoglobin, Diff of LS Mean (SE) vs Placebo (hemoglobin; Day 63, 2.25 μg/kg): 0.68 (0.83)
Change From Baseline in Hemoglobin, LS Mean (SE) (hemoglobin; Day 63, 2.25 μg/kg): −1.55 (0.61)
Change From Baseline in Hemoglobin, Diff of LS Mean (SE) vs Placebo (hemoglobin; Day 63, 3.0 μg/kg): 0.79 (0.83)
Change From Baseline in Hemoglobin, LS Mean (SE) (hemoglobin; Day 63, 3.0 μg/kg): −1.44 (0.61)
Change From Baseline in Hemoglobin, Diff of LS Mean (SE) vs Placebo (hemoglobin; Day 84, 1.5 μg/kg): 0.05 (0.73)
Change From Baseline in Hemoglobin, LS Mean (SE) (hemoglobin; Day 84, 1.5 μg/kg): −1.88 (0.55)
Change From Baseline in Hemoglobin, Diff of LS Mean (SE) vs Placebo (hemoglobin; Day 84, 2.25 μg/kg): 0.37 (0.77)
Change From Baseline in Hemoglobin, LS Mean (SE) (hemoglobin; Day 84, 2.25 μg/kg): −1.56 (0.61)
Change From Baseline in Hemoglobin, Diff of LS Mean (SE) vs Placebo (hemoglobin; Day 84, 3.0 μg/kg): 1.57 (0.77)
Change From Baseline in Hemoglobin, LS Mean (SE) (hemoglobin; Day 84, 3.0 μg/kg): −0.36 (0.61)
change in hemoglobin levels from baseline to the end of Cycle 2 (Day 42) and beyond (hemoglobin; preliminary evaluation): dose-related trend for preservation of hemoglobin
large spleens in necropsied animals ([5]; Group 3): ⅖
mean BW losses ([5]; monotherapy (Group 3)): no mean BW losses
tolerability ([5]; monotherapy (Group 3), 0.2 mg/kg i.v. Days 2, 13): well tolerated
